Experimental findings from PubChem BioAssay AID743184 (Broad Institute, 2013) are described below.

Activity calls are given as the source filed them. The rule behind the calls is not given here.

The test is described as follows: M. tuberculosis BioA enzyme inhibitors, biochemical, single concentration, dry powder (AID 743184). To be noted: at 9.99 µM; hits give high values.
Take `Cc1cc(C)n2nc(C(=O)Nc3cccnc3)nc2n1`: the activity score was 11.6% (inactive).

Regarding `COc1cccc(NC(=O)CCC2CCN(C(=O)c3ccc(C(C)=O)s3)CC2)c1`, the activity score is 1.4% (inactive).

Consider `CC(=O)c1ccc(N2CCN(Cc3ccc4c(c3)OCO4)CC2)cc1`, for which the activity score was -2% (inactive).

In the case of `O=C(c1ccc2c(c1)OCO2)N1CCN(c2ccc(F)cc2)CC1`, the activity score was -13.9% (inactive).

With `CC(=O)c1ccc(N2CCN(C(=O)c3ccc(F)cc3)CC2)cc1`, the activity score is -3.75% (inactive).

As to `CCc1ccc(C(=O)N2CCN(Cc3ccc4c(c3)OCO4)CC2)cc1`, the activity score was 0.311% (inactive).

For `O=C(Nc1ccc(Cl)c(-c2nc3ccccc3[nH]2)c1)c1cccnc1`, the activity score is 5.48% (inactive).

On to `Cc1ccc(/C=C(\CCC(=O)O)c2nc3ccccc3s2)cc1[N+](=O)[O-]`, for which the activity score is -15.2% (inactive).

As for `O=C(Nc1ccc2snnc2c1)N1CCN(c2ccccc2)CC1`, the activity score was -7.17% (inactive).

Consider `CC(=O)c1ccc(N2CCN(C(=O)c3ccc(C)cc3)CC2)cc1`, for which the activity score is -7.19% (inactive).

Regarding `CC(=O)c1ccc(N2CCN(C(=O)c3ccc(Br)cc3)CC2)c(F)c1`, the activity score was 7.7% (inactive).

As to `COC(=O)c1c(C(=O)OC)c(-c2cccc(F)c2)n2c1CS(=O)C2` (centres undefined), the activity score is -8.08% (inactive).

`Cc1cc(C)n2nc(C(=O)Nc3cccnc3)cc2n1`: the activity score is 27.1% (inactive).

Regarding `O=C(COc1ccc2ccc(=O)oc2c1)N1CCN(c2ccc(F)cc2)CC1`, the activity score is 3.38% (inactive).

Consider `O=C(Nc1cccnc1)c1cc2nc(-c3cccs3)cc(C(F)(F)F)n2n1`, for which the activity score is 6.22% (inactive).

`O=C(Nc1cccc(Cl)c1)N1CCN(c2ccccc2)CC1`: the activity score is 3.11% (inactive).

Regarding `COc1ccc(NC(=O)N2CCN(c3ccccc3)CC2)cc1`, the activity score was -12.2% (inactive).

For `O=C(O)CC/C(=C\c1ccc([N+](=O)[O-])cc1)c1nc2ccccc2s1`, the activity score was 1.57% (inactive).

For the compound `Cc1ccc(NC(=O)N2CCN(c3ccccc3)CC2)cc1`, the activity score is 17.2% (inactive).

Take `Cc1ccc(/C=C(\CC(=O)O)c2nc3ccccc3s2)cc1[N+](=O)[O-]`: the activity score is -2.58% (inactive).

Regarding `CC(=O)c1ccc(N2CCN(C(=O)c3ccc4ncsc4c3)CC2)cc1`, the activity score was -4.47% (inactive).

For the compound `Cc1ccc(/C=C(\CCC(=O)O)c2nc3ccccc3s2)cc1`, the activity score was -6% (inactive).

As to `O=C(Nc1ccc(F)cc1)N1CCN(c2ccccc2)CC1`, the activity score was 5.21% (inactive).

Turning to `O=C(Nc1cccc(F)c1)N1CCN(c2ccccc2)CC1`, the activity score was -3.46% (inactive).

As for `CC(=O)c1ccc(N2CCN(C(=O)c3ccccc3)CC2)cc1`, the activity score is -3.73% (inactive).

As to `CC(=O)c1ccc(N2CCN(C(=O)c3ccc(Cl)cc3)CC2)cc1`, the activity score is 5.46% (inactive).

In the case of `Cc1cccc(/C=C(\CCC(=O)O)c2nc3ccccc3s2)c1`, the activity score was 1.92% (inactive).

Take `O=C(Nc1ccccc1)N1CCN(c2ccccc2)CC1`: the activity score is -4.99% (inactive).

In the case of `O=C(Nc1ccc2[nH]ccc2c1)N1CCN(c2ccccc2)CC1`, the activity score was 29.5% (inactive).

As for `COc1ccc(N2CCN(C(=O)c3ccc4c(c3)OCO4)CC2)cc1`, the activity score is -1.28% (inactive).

On to `CC(=O)c1ccc(N2CCN(C(=O)c3cccc(F)c3)CC2)cc1`, for which the activity score is -6.65% (inactive).

With `CCc1ccc(N2CCN(C(=O)c3ccc4c(c3)OCO4)CC2)cc1`, the activity score is -0.719% (inactive).

Take `COc1ccc(C(=O)N2CCN(c3ccc(C(C)=O)cc3)CC2)cc1`: the activity score was 20.7% (inactive).

As to `CC(=O)c1ccc(N2CCN(C(=O)c3ccc4c(c3)OCCO4)CC2)cc1`, the activity score was -1.22% (inactive).

As for `O=C(Nc1cccnc1)c1cnn2c(C(F)(F)F)cc(-c3ccccc3)nc12`, the activity score was 11.8% (inactive).

For the compound `Cc1ccc(-c2cc(C(F)(F)F)n3nc(C(=O)Nc4cccnc4)cc3n2)cc1`, the activity score is 8.78% (inactive).

`O=C(O)CC/C(=C\c1ccccc1[N+](=O)[O-])c1nc2ccccc2s1`: the activity score is -1.5% (inactive).

Consider `O=C(Nc1ccncc1)c1cc2nc(C3CC3)cc(C(F)F)n2n1`, for which the activity score was -0.117% (inactive).

With `COc1ccc(-c2cc(C(F)(F)F)n3nc(C(=O)Nc4cccnc4)cc3n2)cc1`, the activity score was -9.52% (inactive).

Consider `O=C(Nc1cccnc1)N1CCN(c2ccccc2)CC1`, for which the activity score was -4.1% (inactive).

With `O=C(Nc1ccc(Cl)cc1)c1cc2nc(C3CC3)cc(C(F)(F)F)n2n1`, the activity score is -6.7% (inactive).

On to `CC(=O)c1ccc(N2CCN(C(=O)c3cccc(Cl)c3)CC2)cc1`, for which the activity score was -11.7% (inactive).

As to `Cc1nc2ccc(NC(=O)N3CCN(c4ccccc4)CC3)cc2s1`, the activity score was -0.913% (inactive).

Consider `Cc1ccccc1/C=C(\CCC(=O)O)c1nc2ccccc2s1`, for which the activity score is -6.51% (inactive).

As to `COc1cccc(NC(=O)N2CCN(c3ccccc3)CC2)c1`, the activity score was 2.06% (inactive).

`O=C(c1ccc2c(c1)OCO2)N1CCN(c2ccc(Cl)cc2)CC1`: the activity score is -0.291% (inactive).

`O=C(Nc1ccc2snnc2c1)N1CCCCC1`: the activity score was -5.56% (inactive).

In the case of `O=C(Nc1cccnc1)c1cnn2c(C(F)F)cc(C3CC3)nc12`, the activity score was -3.98% (inactive).

As for `CC(C)(C)c1ccc(C(=O)N2CCN(c3ccc4c(c3)OCO4)CC2)cc1`, the activity score was -3.13% (inactive).

On to `Cc1ccc(/C=C(\CCCC(=O)O)c2nc3ccccc3s2)cc1[N+](=O)[O-]`, for which the activity score is 1.05% (inactive).

With `Cc1nc2cc(NC(=O)N3CCN(c4ccccc4)CC3)ccc2o1`, the activity score is 4.18% (inactive).

For `O=C(c1ccc2c(c1)OCO2)N1CCN(Cc2ccccc2)CC1`, the activity score is -10.2% (inactive).

For the compound `O=C(c1ccc2c(c1)OCO2)N1CCN(c2ccccc2)CC1`, the activity score was 0.078% (inactive).

For `CC(=O)c1ccc(N2CCN(C(=O)c3cccnc3)CC2)cc1`, the activity score is -8.01% (inactive).
